Assay results: patent US20210163929A1, “METHODS AND COMPOSITIONS FOR THE TREATMENT OF HEPATIC AND METABOLIC DISEASES” (The Regents of the University of California, priority 2018, published 2021)
Entries after “also recorded” stand apart in the source; their conditions may differ.

Tests used:
[1] = tested on: miR-22 in HCT116 cells; assay: miR-22 induction in HCT116 cells treated with bile acids or HDAC inhibitors; type: cell-based, human
Description: A time course study in which HCT116 cells were treated by 150 μM CDCA for indicated times. […] Data are presented as mean+/−S.D. * denotes p<0.05.
Data are shown as mean+/−S.D. * p<0.05; ** p<0.01; ***p<0.001.
OCA is a semi-synthetic bile acid, which as the structure of 6α-ethyl-chenodeoxycholic acid.

[2] = tested on: FGF21 signaling and miR-22 in Huh7 cells; assay: mRNA and protein levels in Huh7 cells treated with OCA/INT-747, CDCA, butyrate or RA plus butyrate; type: cell-based, human; conditions: for mRNA and protein levels of FGF21, FGFR1 and PGC1α: OCA 5 or 20 μM
Description: (§1) Cell culture: Huh7 cells were obtained from Japanese Collection of Research Bioresources and maintained in DMEM with 10% FBS. Cells were treated with DMSO, OCA (5 or 20 μM; Apexbio Technology LLC, Houston, Tex., USA) in serum-free media for indicated time. Cells were plated (1×10^6 cells per 60-mm dish, 2×10^5 cells per 6-well plates, and 1×10^5 cells per 24-well plates) overnight prior to treatment or infection.
Gene expression quantification: Total RNA was extracted using TRIzol Reagent (Thermo Fisher Scientific, Waltham, Mass., USA), and cDNA was generated using High Capacity RNA-to-cDNA Kit (Applied Biosysterms, Carlsbad, Calif., USA). qRT-PCR was performed on ABI 7900HT Fast Real-time PCR system using Power SYBR® Green PCR Master Mix (Applied Biosysterms).
(§2) Western blot: Western blot was performed as described previously (26). Antibodies used were anti-FGFR1, FGF21, FASN, phosphor (P)-AMPK, total (T)-AMPK, phosphor (P)-ERK1/2, and total (T)-ERK1/2 (Cell Signaling Technology, Beverly, Mass., USA), β-ACTIN (MilliporeSigma), CD36 (Bioss Antibodies Inc., Woburn, Mass., USA), CYCLIN A2, PGC1α (Novus Biologicals, LLC, Littleton, Colo., USA), and PPARα (Santa Cruz Biotechnology, Santa Cruz, Calif., USA).

[3] = tested on: FGF21 signaling in Huh7 cells; assay: Huh7 cells infected/transfected with miR-22 or miR-22 inhibitors, mRNA and Western blot; type: cell-based, human; conditions: adenovirus control or miR-22 inhibitors followed by DMSO or OCA 5 μM for 6 h
Excerpt: However, miR-22 was induced in the livers and adipose tissues of WD-fed mice (FIG. 15B). Similarly, using human liver biopsy specimens, miR-22 levels were positively associated with hepatic fat content and inversely correlated with the mRNA levels of PGC-1α, a key regulator of mitochondrial biogenesis (FIG. 15C). […] To study the downstream effects of miR-22, miR-22 mimics (ID: MIMAT0000077, […] (SEQ ID NO:2), Applied Biological Materials Inc.) were used to transfect human liver Huh7 cells.
as §1
Constructs and luciferase reporter assay: The 3′ untranslated region (3′-UTR) of the FGFR1 gene containing the putative binding site for miR-22 and the entire 3′-UTR of the FGF21 gene (105 bp) was cloned into the psiCHECK2 vector (Promega, Madison, Wis., USA) using NotI and XhoI. For cell infection, adenovirus (negative control), adenoviral-delivered miR-22 (miR-22), or adenoviral-miR-22 inhibitors (SEQ ID NO:1; Applied Biological Materials Inc., Richmond, BC) were used. Forty-eight h post infection, cells were transfected with psiCHECK2-FGR1-3′UTR or psiCHECK2-FGF21 3′UTR using Lipofectamine 2000 (Thermo Fisher Scientific). Twenty-four h later, cells were harvested for firefly and Renilla luciferase assay using the Dual-luciferase Reporter system (Promega). Renilla luciferase activity was standardized to firefly luciferase activity.
as §2

[4] = tested on: Western diet-induced obese C57BL/6 male mice; assay: WD-induced obese mice treated with OCA, miR-22 inhibitors or both for 3 weeks; type: in vivo, mouse
Description: Mice: C57BL/6 wild-type (WT) male mice (Charles River Laboratories, Inc., Wilmington, Mass., USA) were housed in regular filter-top cages at 22° C. with a 12 h/12 h light/dark cycle. For Western diet (WD)-induced obesity models, mice were fed a WD (21% fat, 34% sucrose, and 0.2% cholesterol, w/w) or control diet (CD 5% fat, 12% sucrose, and 0.01% cholesterol, w/w; Harlan Teklad, Indianapolis, Ind., USA) after weaning (3 weeks). When those mice were 7-months old, WD-fed mice were randomly assigned to […] and received vehicle (0.5% carboxyl methyl cellulose sodium), OCA ([…], daily, oral gavage), miR-22 inhibitors (1×10^9 PFU, tail vein injection, once a week), and the combination of OCA and miR-22 inhibitors for three weeks. For alcohol-induced steatosis models, 3-month-old C57BL/6 male mice were initially fed a control Lieber-DeCarli diet (F1259SP, Bio-Serv, Flemington, N.J., USA) ad libitum for 5 days followed by 5% alcohol supplementation for 21 days (F1258SP, Bio-Serv). Then, those alcohol-fed mice received adenovirus (negative control) or miR-22 inhibitors (1×10^9 PFU, tail vein injection, 3 times in 10 days). All the mice were euthanized 1 day after the last viral injection. Animal experiments were conducted in accordance with the National Institutes of Health Guide for the Care and Use of Laboratory Animals under protocols approved by the Institutional Animal Care and Use Committee of the University of California, Davis.
Biochemical analysis: Hepatic triglyceride and cholesterol (BioAssay Systems, Hayward, Calif., USA) levels and serum lipopolysaccharide (LPS) (Thermo Fisher Scientific), alanine transaminase (ALT) (Pointe Scientific), and alkaline phosphatase (ALP) (Pointe Scientific) levels were quantified according to the manufacturer's instructions.
Insulin tolerance test: After 6 h food deprivation, tail vein blood was used to establish fasting blood glucose levels. For insulin tolerance testing, insulin (1 U/kg body weight, i.p.; MilliporeSigma, Burlington, Mass., USA) was given followed by measuring blood glucose level at various times with the OneTouch Ultra 2 (Johnson & Johnson Co., New Brunswick, N.J., USA). The area under the curve (AUC) of the blood glucose levels over time was calculated.
Serum FGF21 and glucagon-like peptide (GLP-1) secretion assay: Serum FGF21 levels were quantified by ELISA (Boster Biological Technology, Pleasanton, Calif., USA). For GLP-1 secretion assays, mice were unfed for 12 h followed by orally administration of dipeptidyl peptidase-4 inhibitor, sitagliptin ([…]; TSZ Chem, Framingham, Mass., USA) and a liquid diet (Ensure Plus, […]; Ross Laboratories, Columbus, Ohio, USA), which contains 15% protein, 57% carbohydrate, and 28% fat to stimulate GLP-1 secretion, as previously described (25). Blood samples were collected immediately (time 0) as well as 15, and 30 min after Ensure Plus feeding. Serum GLP-1 was quantified by a ELISA kit (RayBiotech Life, Norcross, Ga., USA).

[5] = tested on: miR-22 in HCT116 cells; assay: miR-22 induction in HCT116 cells treated with bile acids or HDAC inhibitors; type: cell-based, human; remark: listed apart in the source
[6] = tested on: patients with NASH and T2DM; conditions: cited from earlier work
[7] = tested on: hepatic inflammation and fibrosis; conditions: 30 mg/kg/day, gavage, every 2 days for 4 weeks; cited from earlier work
[8] = 1-day treatment, SAHA (5, butyrate 5 mM, propionate 10 mM, valerate 10 mM)

CC[C@H]1[C@@H](O)[C@@H]2[C@H](CC[C@]3(C)[C@@H]([C@H](C)CCC(=O)O)CC[C@@H]23)[C@@]2(C)CC[C@@H](O)C[C@@H]12 [OCA, obeticholic acid]
CCNA2 expression [1]: reduced CCNA2
FXR target FGF19 expression [1]: induced FXR target FGF19
miR-22 level ([2]; 6 h): induced miR-22
AMPK and ERK1/2 activation ([2]; 6 hours): activated AMPK and ERK1/2
βKlotho protein level ([2]; 6 hours): modestly increased
mRNA and protein levels of FGF21, FGFR1 and PGC1α ([2]; 6 hours): induced FGF21 signaling by increasing the expression of FGF21, FGF21 receptor (FGFR1), and PGC1α; also recorded: increased mRNA and protein levels of FGF21 and FGFR1 as well as PGC1α
mRNA and protein levels of FGF21, FGFR1 and PGC1α ([2]; 6 hours, listed as INT-747): markedly increased the mRNA and protein level of FGF21 and FGFR1
FGF21, FGFR1, P-AMPK, and P-ERK1/2 protein levels [3]: same effects in increasing FGF21, FGFR1, P-AMPK, and P-ERK1/2
hepatic fat accumulation (steatosis score) ([4]; WD-fed 7-month-old mice, 3 weeks, OCA 10 mg/g body weight daily oral gavage, miR-22 inhibitors 1×10^9 PFU once a week): reduced hepatic fat accumulation
hepatic cholesterol level ([4]; WD-fed mice, 3 weeks treatment): reduced hepatic cholesterol level
hepatic triglyceride levels ([4]; WD-fed mice, 3 weeks treatment): did not significantly reduce hepatic triglyceride levels
release of GLP-1 (serum) ([4]; WD-fed mice, 3 weeks treatment): stimulated the release of GLP-1
serum FGF21 level ([4]; WD-fed mice, 3 weeks treatment): reduced
hepatic FASN and CD36 ([4]; diet-induced obese mice): reduced FASN and CD36
hepatic FGF21 and FGFR1 ([4]; diet-induced obese mice): induced hepatic FGF21 and FGFR1
expression of hepatic Pepck, G6pase, and Fbp1 ([4]; reduced by WD intake): reversed those reductions
miR-22 level ([5]; 24 hours, CDCA 50, 100, 150 μM, OCA 25 and 50 μM): induced miR-22
patients with fibrosis having ≥1 stage of fibrosis improvement ([6]; clinical trials, 19% in the placebo group, p<0.05): 41%
patients reaching the primary endpoint of a ≥2-point improvement in NAFLD activity score without worsening fibrosis ([6]; clinical trials, 21% in the placebo group, p<0.01): 57%
insulin sensitivity ([6]; clinical trials): improves insulin sensitivity
markers of liver inflammation and fibrosis ([6]; clinical trials): reduced markers of liver inflammation and fibrosis
deaths and liver injury ([6]; overdose): caused deaths and liver injury
hepatic inflammation and fibrosis [7]: reduces hepatic inflammation and fibrosis

O=C(CCCCCCC(=O)Nc1ccccc1)NO [SAHA, suberanilohydroxamic acid]
miR-22 level [5, 8]: induced miR-22

CC(=O)O [acetate]
miR-22 level [5, 8]: not able to induce miR-22

O=CO [formate]
miR-22 level [5, 8]: not able to induce miR-22

CCC(=O)O [propionate]
miR-22 level [5, 8]: induced miR-22

CCCCC(=O)O [valerate]
miR-22 level [5, 8]: induced miR-22
